One assay addresses T1, adenosine A-2 receptors (Rattus norvegicus, UniProt P30543).
T1 construct: the adenosine A-2 receptors prepared from animal brain membranes; from tissue; host or cells: striatum of young male rats (C-D strain, Charles River)
As to the kind of experiment: Test for affinity for brain adenosine A-2 receptors ([3H]NECA competition). The class given is binding. To be noted: rat brain striatum membranes, 25°C, 60 minutes, read-out: A-2 Receptor Ki. An excerpt:
Test For Affinity For Brain Adenosine A-2 Receptors
The test described below was used to determine the potency of test compounds to compete with the ligand [3H]5′-N-ethyl-carboxamidoadenosine (NECA) for the adenosine A-2 receptors prepared from animal brain membranes. (See also R.R. Bruns, G.H. Lu, and T.A. Pugsley, Characterization of the A-2 Adenosine Receptor Labeled by [3H]NECA in Rat Striatal Membranes, Mol. Pharmacol., 29, 331-346, (1986), incorporated herein by reference.) Young male rats (C-D strain), obtained from Charles River, are killed by decapitation and the brain was removed. Membranes for ligand binding are isolated from rat brain striatum. The tissue is homogenized in 20 vol ice-cold 50 mM Tris-HCl buffer (pH 7.7) using a polytron (setting 6 for 20 seconds). The homogenate is centrifuged at 50,000 x g for 10 minutes at 4°C. The pellet is again homogenized in a polytron in 20 vol of buffer, and centrifuged as before. The pellet is finally resuspended in 40 vol of 50mM Tris-HCl (pH 7.7) per gram of original wet weight of tissue.
Incubation tubes, in triplicate, receive 100 µl of [3H]NECA (94 nM in the assay), 100 µl of 1 µM cyclohexyladenosine (CHA), 100 µl of 100 mM MgCl2, 100 µl of 1 IU/ml adenosine deaminase, 100 µl of test compounds at various concentrations over the range of 10^-10 M to 10^-4 M diluted with assay buffer (50 mM Tris-HCl, pH 7.7) and […] of membrane suspension (5 mg wet weight), in a final volume of 1 ml of 50 mM Tris-HCl, pH 7.7. Incubations are carried out at 25°C for 60 minutes. Each tube is filtered through GF/B glass fiber filters using a vacuum. The filters are rinsed two times with 5 ml of the ice-cold buffer. The membranes on the filters are transferred to scintillation vials to which 8 ml of Omnifluor with 5% Protosol is added. The filters are counted by liquid scintillation spectrometry.
Specific binding of [3H]NECA is measured as the excess over blanks run in the presence of 100 µM 2-chloroadenosine. Total membrane-bound radioactivity is about 2.5% of that added to the test tubes. […] Specific binding to membranes is about 50% of the total bound. Protein content of the membrane suspension is determined by the method of O.H. Lowry, N.J. Rosebrough, A.L. Farr and R.J. Randall, Protein Measurements With Folin Phenol Reagent, J. Biol. Chem., 193, 265-275 (1951), (incorporated herein by reference).
Displacement of [3H]NECA binding of 15% or more by a test compound is indicative of affinity for the adenosine A-2 site. The molar concentration of a compound which causes 50% inhibition of the binding of ligand is the IC50.

For another assay, the target named is T2, Adenosine A-1 receptor (Rattus norvegicus, UniProt P25099).
T2 construct: the membranes are isolated from whole animal brains; from tissue; host or cells: whole brain of male Sprague-Dawley rats
T2 sequence (P25099 1-326): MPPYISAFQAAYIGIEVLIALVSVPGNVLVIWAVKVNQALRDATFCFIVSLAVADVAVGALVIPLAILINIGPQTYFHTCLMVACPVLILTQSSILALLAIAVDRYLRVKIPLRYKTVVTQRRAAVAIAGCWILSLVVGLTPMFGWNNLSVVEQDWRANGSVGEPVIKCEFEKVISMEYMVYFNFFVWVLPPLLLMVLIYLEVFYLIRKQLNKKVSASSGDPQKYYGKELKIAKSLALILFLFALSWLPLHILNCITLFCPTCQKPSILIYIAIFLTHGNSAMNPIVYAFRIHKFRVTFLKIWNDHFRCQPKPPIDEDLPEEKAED
As to the kind of experiment: Test for affinity for brain adenosine A-1 receptor binding sites ([3H]cyclohexyladenosine competition). To be noted: [3H]cyclohexyladenosine 0.8 nM, rat brain membranes, 25°C, 2 hours. From the text:
Test For Affinity For Brain Adenosine A-1 Receptor Binding Sites
The test described below is used to determine the potency of test compounds to compete with the ligand [3H]cycloadenosine for the Adenosine A-1 receptor prepared from rat brain membranes. Male Sprague-Dawley rats are sacrificed by decapitation and the membranes are isolated from whole animal brains. (See R. Goodman, M. Cooper, M. Gavish, and S. Synder, Guanine Nucleotide and Cation Regulation of the Binding of [3H] Diethylphenylxanthine to Adenosine A-1 Receptors in Brain Membrane, Molecular Pharmacology, 21, 329-335, (1982), incorporated herein by reference.)
Membranes are homogenized (using polytron setting 7 for 10 seconds) in 25 volumes of ice-cold 50 mM Tris-HCl buffer, pH 7.7. The homogenate is centrifuged at 19,000 rpm for 10 minutes at 4°C. The pellet is washed by resuspending in 25 volumes of buffer with 2 IU of adenosine deaminase per ml and incubated 30 minutes at 37°C. The homogenate is centrifuged again. The final pellet is resuspended in 25 volumes of ice-cold buffer.
The incubation tubes, in triplicate, receive 100 µl of [3H]cyclohexyladenosine, 0.8 nM in the assay, 200 µl of test compounds at various concentrations over the range of 10^-10 M to 10^-6 M diluted with […] Tris-HCl buffer (pH 7.7), 0.2 ml of membrane suspension (8 mg wet weight) and in a final volume of 2 ml with Tris buffer. Incubations are carried out at 25°C for 2 hours and each one is terminated within 10 seconds by filtration through a GF/B glass fiber filter using a vacuum. The membranes on the filters are transferred to scintillation vials. The filters are counted by liquid scintillation spectometry in 8 ml of Omniflour containing 5% Protosol.
Specific binding of [3H]cycloadenosine is measured as the excess over blanks taken in the presence of 10^-5 M 2-chloroadenosine. Total membrane-bound radioactivity is about 5% of that added to the test tubes. Specific binding to membranes is about 90% of the total bound. Protein content of the membrane suspension is determined by the method of Lowry, et al. Id., 265.
Displacement of [3H]cyclohexyladenosine binding of 15% or more by a test compound is indicative of affinity for the adenosine binding site.

The target in a further assay is A-2 receptors. Conditions: brain slice assay; cited from earlier work.

SMILES strings stand for the structures.

T1 sequence (P30543 whole entry): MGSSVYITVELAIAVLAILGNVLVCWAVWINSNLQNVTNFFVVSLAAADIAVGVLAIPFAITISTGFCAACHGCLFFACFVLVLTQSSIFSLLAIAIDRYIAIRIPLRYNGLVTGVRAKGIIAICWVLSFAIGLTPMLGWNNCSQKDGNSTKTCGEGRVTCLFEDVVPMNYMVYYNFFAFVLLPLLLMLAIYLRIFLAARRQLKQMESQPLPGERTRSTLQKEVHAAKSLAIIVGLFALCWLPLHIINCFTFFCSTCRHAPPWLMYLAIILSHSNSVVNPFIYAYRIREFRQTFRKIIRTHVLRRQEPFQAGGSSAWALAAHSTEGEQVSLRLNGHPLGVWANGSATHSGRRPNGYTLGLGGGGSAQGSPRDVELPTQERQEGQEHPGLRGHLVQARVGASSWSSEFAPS

What is called Ki is the dissociation constant of the complex between target and ligand, obtained from inhibition or displacement. On to `CCCOc1nc(N[C@H](C)Cc2ccccc2)c2cnn(-c3ccccc3)c2n1` [Compound 1, (R)-N-(1-methyl-2-phenylethyl)-1-phenyl-6-propoxy-1H-pyrazolo[3,4-d]pyrimidin-4-amine], for which the Ki at adenosine A-2 receptors amounted to 3630 nM; at Adenosine A-1 receptor it was 2010 nM.
The corresponding values for `CCCOc1nc(N[C@@H](C)Cc2ccccc2)c2cnn(-c3ccccc3)c2n1` [Compound 2, (S)-N-(1-methyl-2-phenylethyl)-1-phenyl-6-propoxy-1H-pyrazolo[3,4-d]pyrimidin-4-amine] are more than 6990 nM and 11300 nM.
The corresponding values for `CCCOc1nc(N[C@H](CO)Cc2ccccc2)c2cnn(-c3ccccc3)c2n1` [Compound 3, (S)-β-[(1-phenyl-6-propoxy-1H-pyrazolo[3,4-d]pyrimidin-4-yl)amino]benzenepropanol] are 2900 nM and 1740 nM.
As to `CCCOc1nc(N[C@@H](CO)Cc2ccccc2)c2cnn(-c3ccccc3)c2n1` [Compound 4, (R)-β-[(1-phenyl-6-propoxy-1H-pyrazolo[3,4-d]pyrimidin-4-yl)amino]benzenepropanol], the Ki at adenosine A-2 receptors came out at 377 nM; on Adenosine A-1 receptor it was 321 nM.
On to `CCCOc1nc(N[C@@H](CO)Cc2ccccc2)c2ncn([C@@H]3O[C@H](CO)[C@@H](O)[C@H]3O)c2n1` [Compound 5], for which the Ki came out at 17200 nM on adenosine A-2 receptors and 3700 nM at Adenosine A-1 receptor.
The corresponding values for `CCCOc1nc(N[C@H](CO)Cc2ccccc2)c2ncn([C@@H]3O[C@H](CO)[C@@H](O)[C@H]3O)c2n1` [Compound 6] are 1900 nM and 44 nM.
Consider `CCCn1c(=O)c2[nH]c(-c3ccc(OCC(=O)NCCN)cc3)nc2n(CCC)c1=O` [XAC, amino congener of 8-phenyl-1,3-dipropyl-xanthine], for which the inhibition constant Ki on A-2 receptors is 49 ± 17 nM.
In the case of `CCCn1c(=O)c2[nH]c(-c3ccc(OCC(=O)O)cc3)nc2n(CCC)c1=O` [XCC, carboxylic acid congener of 8-phenyl-1,3-dipropyl-xanthine], the Ki on A-2 receptors was 34 ± 13 nM.

These data come from patent EP0390112B1, “Selective adenosine receptor agents” (MERRELL PHARMACEUTICALS INC., priority 1989, dated 1990).
